For one compound, IC50 results are on record in ChEMBL document CHEMBL3886225, “Morpholinylquinazolines” (2015).

Each structure is given as a SMILES string.

In this assay the target is DNA-dependent protein kinase catalytic subunit (Homo sapiens, UniProt P78527). The assay is described as follows: Biochemical Assay: The kinase assay was carried out in streptavidin-coated […] microtitre FlashPlates®. To this end, 1.5 μg of the DNA-PK/protein complex and 100 ng of biotinylated substrate, such as, for example, PESQEAFADLWKK biotin-NH2 (biotin-DNA-PK peptide), in a total volume of 36.5 μl (34.25 mM HEPES/KOH, 7.85 mM Tris-HCl, 68.5 mM KCl, 5 μM ATP, 6.85 mM MgCl2, 0.5 mM EDTA, 0.14 mM EGTA, 0.69 mM DTT, pH 7.4), were incubated at room temperature for 90 min with 500 ng of DNA from calf thymus, 0.1 μCi of 33P-ATP and 1.8% of DMSO per well with or without the test compound. The reaction was stopped using 50 μl/well of 200 mM EDTA. After incubation for a further 30 min at room temperature, the liquid was removed. Each well was washed three times with 100 μl of 0.9% sodium chloride solution. A non-specific reaction (blank value) was determined using 10 μM of a proprietary kinase inhibitor.
Chain of DNA-dependent protein kinase catalytic subunit (P78527 whole entry): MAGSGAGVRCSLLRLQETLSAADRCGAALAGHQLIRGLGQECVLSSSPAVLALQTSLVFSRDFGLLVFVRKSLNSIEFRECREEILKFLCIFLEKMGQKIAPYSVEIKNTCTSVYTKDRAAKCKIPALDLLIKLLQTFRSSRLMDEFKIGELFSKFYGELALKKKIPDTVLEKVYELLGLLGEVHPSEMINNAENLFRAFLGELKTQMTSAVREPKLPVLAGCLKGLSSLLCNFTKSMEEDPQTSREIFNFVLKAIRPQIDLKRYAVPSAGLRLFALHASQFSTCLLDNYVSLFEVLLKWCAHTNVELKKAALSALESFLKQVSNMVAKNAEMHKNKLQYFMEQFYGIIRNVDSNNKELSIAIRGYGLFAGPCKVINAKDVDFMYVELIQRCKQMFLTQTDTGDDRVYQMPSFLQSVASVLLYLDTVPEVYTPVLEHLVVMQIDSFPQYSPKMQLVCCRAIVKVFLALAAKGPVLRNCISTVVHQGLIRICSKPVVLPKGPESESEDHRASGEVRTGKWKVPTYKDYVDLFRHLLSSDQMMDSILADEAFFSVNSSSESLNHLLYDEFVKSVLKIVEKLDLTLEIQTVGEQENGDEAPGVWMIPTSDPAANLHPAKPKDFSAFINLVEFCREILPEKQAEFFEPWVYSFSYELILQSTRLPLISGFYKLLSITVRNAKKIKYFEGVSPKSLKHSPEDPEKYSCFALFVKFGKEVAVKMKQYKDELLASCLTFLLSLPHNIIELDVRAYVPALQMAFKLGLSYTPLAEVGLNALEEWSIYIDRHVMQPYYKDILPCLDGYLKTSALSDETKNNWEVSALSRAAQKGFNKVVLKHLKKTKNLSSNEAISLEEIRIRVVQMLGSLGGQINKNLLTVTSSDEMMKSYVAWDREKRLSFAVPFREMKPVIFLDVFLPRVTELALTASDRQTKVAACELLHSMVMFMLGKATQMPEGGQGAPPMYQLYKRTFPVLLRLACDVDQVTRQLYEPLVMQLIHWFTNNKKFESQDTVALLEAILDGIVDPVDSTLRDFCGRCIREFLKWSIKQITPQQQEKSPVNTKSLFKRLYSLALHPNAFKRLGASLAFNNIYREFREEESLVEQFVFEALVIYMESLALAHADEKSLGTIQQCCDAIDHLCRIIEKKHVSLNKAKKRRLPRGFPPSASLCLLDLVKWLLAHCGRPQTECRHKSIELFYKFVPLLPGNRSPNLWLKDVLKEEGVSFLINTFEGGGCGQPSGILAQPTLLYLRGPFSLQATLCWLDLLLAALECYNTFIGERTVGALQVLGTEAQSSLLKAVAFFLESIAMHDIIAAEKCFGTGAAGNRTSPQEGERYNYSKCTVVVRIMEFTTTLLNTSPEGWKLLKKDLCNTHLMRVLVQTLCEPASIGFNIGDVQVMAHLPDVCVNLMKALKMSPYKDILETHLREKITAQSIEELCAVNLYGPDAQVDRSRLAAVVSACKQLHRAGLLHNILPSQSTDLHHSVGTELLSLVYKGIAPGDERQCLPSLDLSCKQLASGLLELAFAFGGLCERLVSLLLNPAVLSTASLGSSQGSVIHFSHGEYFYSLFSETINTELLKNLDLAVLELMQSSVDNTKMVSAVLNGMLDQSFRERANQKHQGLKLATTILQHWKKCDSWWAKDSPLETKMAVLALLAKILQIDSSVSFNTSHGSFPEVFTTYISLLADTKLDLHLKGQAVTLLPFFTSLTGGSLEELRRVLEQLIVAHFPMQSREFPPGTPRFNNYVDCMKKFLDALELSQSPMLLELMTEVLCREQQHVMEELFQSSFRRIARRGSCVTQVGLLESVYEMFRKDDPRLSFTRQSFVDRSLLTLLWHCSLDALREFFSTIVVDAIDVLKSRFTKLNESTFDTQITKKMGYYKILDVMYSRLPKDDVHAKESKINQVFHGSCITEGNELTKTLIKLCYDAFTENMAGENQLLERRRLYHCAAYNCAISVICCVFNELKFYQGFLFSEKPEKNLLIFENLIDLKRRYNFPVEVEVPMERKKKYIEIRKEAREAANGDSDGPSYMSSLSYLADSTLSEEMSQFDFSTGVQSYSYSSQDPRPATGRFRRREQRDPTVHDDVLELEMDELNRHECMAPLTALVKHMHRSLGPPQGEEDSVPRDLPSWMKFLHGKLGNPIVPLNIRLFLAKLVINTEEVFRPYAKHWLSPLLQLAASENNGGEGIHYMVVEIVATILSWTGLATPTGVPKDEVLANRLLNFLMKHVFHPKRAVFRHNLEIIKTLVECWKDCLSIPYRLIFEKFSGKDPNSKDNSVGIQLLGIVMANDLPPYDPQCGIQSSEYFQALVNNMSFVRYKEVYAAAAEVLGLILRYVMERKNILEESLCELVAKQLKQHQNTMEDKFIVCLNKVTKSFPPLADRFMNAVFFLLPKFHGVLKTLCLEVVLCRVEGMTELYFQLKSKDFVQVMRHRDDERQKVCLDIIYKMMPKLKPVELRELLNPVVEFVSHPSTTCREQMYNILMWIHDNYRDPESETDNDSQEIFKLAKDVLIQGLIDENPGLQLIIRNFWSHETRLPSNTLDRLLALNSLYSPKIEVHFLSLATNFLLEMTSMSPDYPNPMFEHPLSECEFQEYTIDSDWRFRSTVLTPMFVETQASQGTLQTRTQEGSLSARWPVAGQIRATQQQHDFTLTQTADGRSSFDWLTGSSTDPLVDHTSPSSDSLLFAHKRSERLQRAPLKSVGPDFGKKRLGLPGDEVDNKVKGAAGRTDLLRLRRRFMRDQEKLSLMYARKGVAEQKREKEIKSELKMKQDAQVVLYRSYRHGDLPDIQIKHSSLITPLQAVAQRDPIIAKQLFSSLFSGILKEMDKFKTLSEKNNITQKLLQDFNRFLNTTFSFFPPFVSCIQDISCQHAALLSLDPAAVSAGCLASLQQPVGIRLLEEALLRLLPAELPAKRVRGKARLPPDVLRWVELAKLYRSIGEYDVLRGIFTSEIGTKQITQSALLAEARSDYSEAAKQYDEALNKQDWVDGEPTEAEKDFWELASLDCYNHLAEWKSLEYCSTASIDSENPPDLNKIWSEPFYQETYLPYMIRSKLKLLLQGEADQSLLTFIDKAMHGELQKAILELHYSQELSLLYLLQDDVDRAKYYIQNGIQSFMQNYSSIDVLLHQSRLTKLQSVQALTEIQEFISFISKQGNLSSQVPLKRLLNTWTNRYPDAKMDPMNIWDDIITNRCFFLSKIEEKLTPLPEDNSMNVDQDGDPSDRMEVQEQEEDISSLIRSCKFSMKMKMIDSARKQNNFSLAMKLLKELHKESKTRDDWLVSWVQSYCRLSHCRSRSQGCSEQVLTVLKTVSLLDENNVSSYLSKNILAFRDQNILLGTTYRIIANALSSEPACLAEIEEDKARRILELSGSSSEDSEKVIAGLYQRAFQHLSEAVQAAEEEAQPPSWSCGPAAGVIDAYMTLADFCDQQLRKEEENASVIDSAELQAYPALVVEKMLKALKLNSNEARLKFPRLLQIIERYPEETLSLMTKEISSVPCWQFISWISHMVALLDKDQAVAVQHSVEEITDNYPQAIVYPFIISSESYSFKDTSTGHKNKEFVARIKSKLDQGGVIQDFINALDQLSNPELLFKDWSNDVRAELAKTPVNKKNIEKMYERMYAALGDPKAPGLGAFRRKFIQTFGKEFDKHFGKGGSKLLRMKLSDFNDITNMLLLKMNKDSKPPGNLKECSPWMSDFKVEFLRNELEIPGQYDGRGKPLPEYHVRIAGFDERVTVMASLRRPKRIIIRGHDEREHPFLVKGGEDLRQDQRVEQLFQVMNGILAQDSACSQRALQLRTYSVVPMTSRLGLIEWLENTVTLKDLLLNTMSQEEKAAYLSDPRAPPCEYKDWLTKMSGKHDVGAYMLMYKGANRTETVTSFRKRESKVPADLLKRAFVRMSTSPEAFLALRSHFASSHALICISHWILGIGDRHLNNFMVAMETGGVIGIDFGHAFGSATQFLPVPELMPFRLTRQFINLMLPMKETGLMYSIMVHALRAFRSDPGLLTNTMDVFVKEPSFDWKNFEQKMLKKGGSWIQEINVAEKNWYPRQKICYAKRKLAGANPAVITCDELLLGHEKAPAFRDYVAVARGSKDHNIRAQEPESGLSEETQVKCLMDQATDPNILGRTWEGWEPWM

The IC50 is the concentration that inhibits the measured activity by half. Regarding `O=S(=O)(NC1CCCN(c2nc(Cl)nc3cc(N4CCOCC4)ccc23)C1)c1cccs1` (stereo unspecified), the IC50 is below 100 nM.
